Measured values reported in patent US12528944B2, “Live-cell fluorescent mitochondrial stains” (HOWARD HUGHES MEDICAL INSTITUTE, priority 2022, dated 2026).
“Also recorded” adds a separate entry of the source.

Assays:
[1] = Quantum yield determination (absolute, integrating sphere)
Method: Unless otherwise noted, Φf values were measured in PBS, pH 7.4. This instrument uses an integrating sphere to determine photons absorbed and emitted by a sample. Measurements were carried out using dilute samples (A<0.1) and self-absorption corrections^24 were performed using the instrument software. Reported values are averages (n=3).

[2] = UV-vis and fluorescence spectroscopy; conditions: for absorptivity, quantum yield and brightness in nonpolar conditions relative to PBS: SDS micelles and dioxane:water mixtures
Method: Spectroscopy was performed using 1-cm path length, 3.5-mL quartz cuvettes from Starna Cells. All measurements were taken at ambient temperature (22±2° C.). […] Fluorescence spectra were recorded on a Cary Eclipse fluorometer (Varian). Unless otherwise noted, maximum absorption wavelength (λabs), extinction coefficient (ε), and maximum emission wavelength (λem) were measured in PBS, pH 7.4. Reported values and spectra are averages (n=3).

[3] = Chemical stability by fluorescence in different buffers and media; format: physicochemical; conditions: 1 μM; citrate pH 5, PBS pH 7.4, Tris pH 9, DMEM, DMEM+10% FBS
Method: Measurement of chemical stability by fluorescence (FIG. 5A-5B). To compare the chemical stability of 15 in different conditions using changes in fluorescence, samples (1 μM) of 15 were prepared in the following solutions: citrate buffer, pH 5; PBS, pH 7.4; Tris buffer, pH 9; DMEM; and DMEM containing 10% v/v FBS (DMEM+FBS). 200 μL of each solution (n=3) was placed in a black, clear-bottom 96-well microplate (Nunc, 165305) and sealed with an adhesive film. The fluorescence of the DAB dye was monitored using 445 nm excitation and 510-550 nm emission (integrated signal) reading from the bottom of the plate using a TECAN Spark microplate reader controlled with SparkControl software.

[4] = Photochemistry under 405 nm illumination, analysis by LC-MS; format: physicochemical; conditions: PBS, 5 and 20 min
Method: To investigate photochemistry, solutions of 8, 11, and 13-15 (100 μM) were prepared in PBS and placed in a glass vial. An aliquot of this freshly prepared solution was immediately analyzed by LC-MS (−hv). The solution was then irradiated with 405 nm light from an LED array (LOCTITE CL20 flood array) for 5 min (t=5 min) and 20 min (t=20 min) followed by analysis using LC-MS. Photochemical adducts 17/17i and 18/18i were purified and the spectral properties of these isomeric mixtures were analyzed. These compounds were then treated with 1 or 2 equivalents of NaOH(aq) to hydrolyze the iminium bond; the resulting oxidized coumarin products S1/S1i and S2/S2i were observed by LC-MS.

[5] = test system: mitochondria of live U2OS cells; experiment: Cellular retention after dye-free media exchange washes; format: cell-based; conditions: 1 h, 37° C., 0, 1 or 2 dye-free media washes
Method: To compare cellular retention of 15, 20, and MitoView 405, U2OS cells were incubated with 15 (200 nM), 20 (200 nM) or MitoView 405 (100 nM; Biotium) for 1 h at 37° C.

[6] = Chemical stability (iminium hydrolysis) by LC-MS; format: physicochemical; conditions: 25 μM; citrate pH 5, PBS pH 7.4, Tris pH 9; sampled every 30 min over 12 h
Method: Measurement of chemical stability and photostability by tandem high-pressure liquid chromatography-mass spectrometry (LC-MS; FIG. 3A-D, FIG. 4A-4D, FIG. 6, FIG. 10). To examine the chemical stability and photostability of the DAB dyes, samples were assessed by tandem high-pressure liquid chromatography-mass spectrometry (LC-MS) using an Agilent 1200 LC-MS system equipped with an autosampler, diode array detector, and mass spectrometry detector (ESI; positive ion mode) using a 4.6×150 mm Gemini NX-C18 column with a 5-95% or 5-50% gradient of CH3CN in H2O containing constant 0.1% (v/v) TFA. Chromatograms were monitored using absorbance at 254 nm or 400 nm. To investigate chemical hydrolysis, solutions of 8, 11, and 13-15 (100 μM) were prepared in PBS, pH 7.4. An aliquot of this freshly prepared solution was immediately analyzed by LC-MS (t=0). The solution was then incubated at ambient temperature protected from light for 48 h and analyzed again by LC-MS (t=48 h). Standard samples of coumarins 6, 10, and 12 (100 μM, PBS) were analyzed in the same manner. To compare the stability of compounds 15 and 20 under different conditions, solutions of each dye (25 μM) in citrate buffer, pH 5, PBS, pH 7.4, or Tris buffer, pH 9 were prepared in an autosampler vial and the sample was analyzed using the LC-MS instrumentation every 30 min. […]

U2OS cells = experiment: In-cell photostability experiments; format: cell-based; conditions: 405 nm laser, 15 photobleaching cycles
Method: In-cell photostability experiments (FIG. 9C). U2OS cells were incubated with 15 (200 nM), 20 (200 nM) or MitoView 405 (100 nM; Biotium) for 1 h at 37° C. and imaged live without washing using a Leica SP8 Falcon confocal microscope with enabled adaptive focus control (AFC), an HC PL-APO 86×/1.20 water objective, and a 405 nm diode laser at 58.9% laser power. […] These images were processed using FIJI.^25

Compound | fluorescence quantum yield (Φf) ([1]; PBS, pH 7.4) | Stokes shift ([2]; PBS, pH 7.4) | bathochromic shift in λabs relative to parent coumarin ([2]; PBS, pH 7.4) | shift in λem relative to parent coumarin ([2]; PBS, pH 7.4) | maximum fluorescence emission wavelength (λem) ([2]; PBS, pH 7.4) | absorptivity, quantum yield and brightness in nonpolar conditions relative to PBS [2] | also measured
CCN(CC)c1ccc2c(C)cc(=O)oc2c1 [Compound 6, 7-diethylamino-4-methylcoumarin, reference compound] | 0.06 |  |  |  |  |  | 
CCN(CC)c1ccc2c(C)cc(N(CC)CC)[o+]c2c1.O=C([O-])C(F)(F)F [Compound 8, 2,7-Bis(diethylamino)-4-methylbenzopyrylium trifluoroacetate] | 0.16 | 65 nm | 45 nm | 26 nm |  |  | 
Cc1cc(N2CCC2)[o+]c2cc(N3CCC3)ccc12.O=C([O-])C(F)(F)F [Compound 11, 2,7-Di(azetidin-1-yl) 4-methylbenzopyrylium trifluoroacetate] | 0.79 | 99 nm | 48 nm | 34 nm |  |  | 
CC[N+](CC)=c1cc(C)c2cc3c4c(c2o1)CCCN4CCC3.O=C([O-])C(F)(F)F [Compound 13, N-ethyl-N-(9-methyl-2,3,6,7-tetrahydro-1H,5H,11H-pyrano[2,3-f]pyrido[3,2,1-ij]quinolin-11-ylidene)ethanaminium trifluoroacetate] |  | 68 nm |  |  | 513 nm |  | 
Cc1cc(=[N+]2CCCCC2)oc2c3c4c(cc12)CCCN4CCC3.O=C([O-])C(F)(F)F [Compound 15, 1-(9-methyl-2,3,6,7-tetrahydro-1H,5H,11H-pyrano[2,3-f]pyrido[3,2,1-ij]quinolin-11-ylidene)piperidin-1-ium trifluoroacetate] |  |  |  |  |  | higher absorptivity and fluorescence quantum yield | rate of hydrolysis in different buffer conditions [3]: modestly higher rates of hydrolysis was observed at elevated pH or in cell culture media containing serum; photochemical oxidation [4]: no photochemically driven oxidation was detected on the piperidine ring; cellular signal upon media exchange (retention) ([5]; trifluoroacetate): rapidly decreased upon media exchange; also recorded: signal rapidly decreased
Cc1cc(=[N+]2CCC(CCCC3CC[N+](=c4cc(C)c5cc6c7c(c5o4)CCCN7CCC6)CC3)CC2)oc2c3c4c(cc12)CCCN4CCC3.O=C([O-])C(F)(F)F.O=C([O-])C(F)(F)F (stereo not shown) [Compound 20, 4,4′-(propane-1,3-diyl)bis(1-(9-methyl-2,3,6,7-tetrahydro-1H,5H,11H-pyrano[2,3-f]pyrido[3,2,1-ij]quinolin-11-ylidene)piperidin-1-ium) trifluoroacetate] | 0.45 |  |  |  | 524 nm | brighter in dioxane:water mixtures | rate of hydrolysis relative to 15 [6]: slightly higher rate of hydrolysis; cellular signal upon media exchange (retention) [5]: retained; resistance to photobleaching in live cells (U2OS cells): best overall photostability; extinction coefficient at λabs (ε) ([2]; PBS containing 0.1% w/v SDS): 78,900 M^−1 cm^−1; maximum absorption wavelength (λabs) ([2]; PBS, pH 7.4): 447 nm; extinction coefficient at λabs (ε) ([2]; aqueous solution (PBS, pH 7.4)): 45,200 M^−1 cm^−1; fluorescence quantum yield (Φf) ([1]; PBS containing 0.1% w/v SDS): 0.83
